In US20250312336A1, “Compositions And Methods For Treating Cancer With Calcium Channel Inhibitors” (Institute for Cancer Research d/b/a The Research Institute …, priority 2024, published 2025):
Entries after “also recorded” stand apart in the source; their conditions may differ.

Experiments:
[1] = tested on: OT-1 CTLs; test: Trogocytosis assay of DiD-labeled CAFs co-cultured with OT-1 CTLs; assay type: cell-based, mouse; details: 12 h co-culture; niclosamide 1 μM, clofazimine 1 μM, anti-TIM3 Ab 4 μg/ml, 25-hydroxycholesterol 4 μM
Method: For trogocytosis between OT-1 and CAF cells, T cells were isolated from splenocytes of OTI mice (strain 021880, The Jackson Laboratory) and stimulated with OVA257-264 (1 μg/ml) for 24 hours as described.
Cholesterol abundance in cell membranes was determined with Cholesterol Detection Assay Kit (Cayman, cat #10009779). Dissociated cells were fixed with fixative solution for 10 minutes, washed and labeled with Filipin III as per the manufacturer's instructions. Labeling with Filipin III was done by incubating in the dark for 30 minutes. After two washes for 5 minutes each, labeling was analyzed by flow cytometry (excitation: 340-380, emission: 385-470). The IFN-γ, Granzyme B and Foxp3 were detected using Foxp3/Transcription Factor Staining Buffer (00-5523-00, Thermo Fisher Scientific). Cells were stained for cell surface markers at 4° C. for 30 min followed by fixation and permeabilization buffer for 30 mins and two washes with permeabilization buffer and incubation with the indicated antibodies for 30 mins, washed with PBS twice followed by flow cytometry analysis.

[2] = tested on: KPC3 pancreatic tumors; test: Orthotopic syngeneic KPC3 pancreatic tumor growth; assay type: in vivo, mouse; details: oral gavage 5 days/week for 3 weeks; niclosamide 150 mg/kg, clofazimine 50 mg/kg
Method: Syngeneic 5×10^5 KPC3 cells were injected into the tail of pancreas of anesthetized C57B1/6J mice. […] Mice were kept under defined-flora pathogen-free conditions at the AAALAC-approved Animal Facility of the Fox Chase Cancer Center, Philadelphia, PA. Mice of both genders, equally distributed, were used for the experiments.

[3] = tested on: CAF1 fibroblasts; test: Western blot of signaling epitopes in CAF1 fibroblast lysates; assay type: cell-based, human; details: band densities relative to vehicle control
Method: Functional fibroblastic cell 3D culture units are needed to ensure the pathophysiological signal reciprocity between fibroblastic cells and self-generated ECM is sustained ex vivo. These units were generated using known methods. Briefly, confluent cultures of human pancreatic fibroblastic cells, harvested from surgical samples and immortalized via hTERT overexpression, were supplemented daily with freshly-prepared ascorbic acid (50 ug/mL) for a period lasting 5 days. The resulting fibroblastic/ECM 3D functional units were used for the phenotypic characterization of the units and to report on the pro-tumor vs. tumor-suppressive (normalized) statuses of the experimental fibroblastic/ECM units. For this, lysates obtained from the assorted units were resolved using SDS-PAGE and traits were gauged via western blot; testing for constitutive integrin and PI3K activities depicted by phosphorylated FAK and AKT respectively. Cultured cells were lysed in RIPA buffer (#24928, Santa Cruz) with phosphatase inhibitor (#1862495, Thermo Fisher Scientific) and protease inhibitors (#1861278, Thermo Fisher Scientific) on ice and cleared by centrifugation (15 min at 17,000 g). The protein concentration was measured with a Pierce BCA Protein Assay Kit (#23225, Thermo Fisher Scientific). […] The density of obtained bands was quantified with Image J software (FIJI).

[4] = tested on: TMEM16F-dependent syncytia induced by SARS-COV-2; details: previous studies; cited from earlier work
[5] = target: T1, ANO6 (Homo sapiens, UniProt Q4KMQ2); test: PtdSer externalization (annexin XII) in CAFs co-cultured with DsRed-tagged Panc-1 cells; assay type: cell-based; design: this increase was observed only in control CAFs (ANO6-proficient) engaged in physical contacts with DsRed-tagged Panc-1 cells; endogenous in cells; host or cells: human CAFs in co-culture with DsRed-tagged Panc-1 cells; details: BTP2 10 μM; clofazimine 1 μM; niclosamide
T1 sequence (Q4KMQ2 1-910): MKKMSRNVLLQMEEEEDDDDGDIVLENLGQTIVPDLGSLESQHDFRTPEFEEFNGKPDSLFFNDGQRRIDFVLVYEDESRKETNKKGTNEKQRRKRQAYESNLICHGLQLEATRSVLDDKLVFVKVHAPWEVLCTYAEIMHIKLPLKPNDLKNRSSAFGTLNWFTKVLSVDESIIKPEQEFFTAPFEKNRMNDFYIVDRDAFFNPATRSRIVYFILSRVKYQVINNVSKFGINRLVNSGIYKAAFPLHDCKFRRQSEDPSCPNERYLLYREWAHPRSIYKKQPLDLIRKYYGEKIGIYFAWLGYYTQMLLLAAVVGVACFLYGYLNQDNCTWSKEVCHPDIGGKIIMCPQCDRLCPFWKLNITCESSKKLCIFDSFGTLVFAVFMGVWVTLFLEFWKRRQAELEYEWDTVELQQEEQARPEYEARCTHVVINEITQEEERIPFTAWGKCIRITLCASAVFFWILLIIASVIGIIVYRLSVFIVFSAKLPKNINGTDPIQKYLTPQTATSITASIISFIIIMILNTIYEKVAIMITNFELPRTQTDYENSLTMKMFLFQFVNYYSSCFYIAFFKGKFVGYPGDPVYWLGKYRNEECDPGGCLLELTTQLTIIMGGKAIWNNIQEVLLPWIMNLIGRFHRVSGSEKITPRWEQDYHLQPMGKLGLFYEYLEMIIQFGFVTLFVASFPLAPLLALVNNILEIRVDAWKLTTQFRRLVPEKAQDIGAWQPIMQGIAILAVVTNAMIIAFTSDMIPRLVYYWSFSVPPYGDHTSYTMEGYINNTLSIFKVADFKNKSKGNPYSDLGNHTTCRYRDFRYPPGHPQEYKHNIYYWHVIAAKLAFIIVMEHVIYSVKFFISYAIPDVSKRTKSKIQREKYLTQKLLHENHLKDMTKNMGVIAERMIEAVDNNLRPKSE
Method: (§1) CAFs were seeded in 24-well glass bottom plates (cat. #81156, Ibidi, Fitchburg, WI) at a density of 20,000 cells per well. Cells were then treated with niclosamide (1 μM) for 2 h. After one wash with FBS-free media at RT, cells were incubated with 250 μl of 1:100 annexin XII and 1:200 propidium iodide (pSIVA Abcam #ab129817), with or without 10 μM ionomycin. Cells were then incubated (5 min 37C) and imaged by fluorescence microscopy using a Nikon A1 camera (Nikon) linked to a Nikon Eclipse Ti2-E Inverted Microscope Imaging System (Nikon) for each channel. Fifteen images per well were acquired.

[6] = target: T1, ANO6; test: Phosphatidylserine externalization assay in CAFs pulsed with ionomycin (annexin XII); assay type: cell-based; design: endogenous in cells; host or cells: human patient-derived, hTERT-immortalized pancreatic cancer-associated fibroblasts (CAFs); details: niclosamide 1 μM 2 h; ionomycin 5 minutes at 10 μM; annexin XII staining
Method: as §1

[7] = tested on: DsRed-tagged PDAC KPC3 tumors; test: Intravital multiphoton imaging of BODIPY-cholesterol LDL uptake in DsRed-tagged KPC3 tumors; assay type: in vivo, mouse
Method: Mice with established orthotopic tumors roughly 21 days post implantation were anesthetized with 1.5-2% isoflurane/oxygen mixture maintained for the duration of imaging. Pancreatic tumors were exposed through a 1 cm incision on the left flank of the mouse placed on a 35° C. heating pad (Kent Scientific). Intensity thresholds were set up to distinguish signal from background fluorescence, and areas positive for DsRed, indicative of tumor cells, were selected for 3D confocal imaging using a 25× objective in the Leica SP8 Dive multiphoton imaging system (Leica Microsystems), prior to the intravenous administration of 150 μL of LDL carrying BODIPY-cholesterol and at 0.5, 1, 5, 16, and 19-hour interval post injection with XY resolution 0.867 um/px and Z distance 2 μm. For each time interval, 2-3 mice were imaged for 0.5-2 hours under continuous anesthesia. At the end of each imaging session, the animals were euthanized, and tissues were collected. The acquired 3D stacks were analyzed using Imaris 10.0.0 software (Oxford Instruments, UK). […] Mean intensity of cholesterol volume co-localized with tumor volume or volume outside of tumor was measured and ratio inside intensity/outside intensity was calculated. […] The volume of vesicles inside the tumor were expressed as a percentage relative to tumor volume.

[8] = tested on: PtdSer externalization in KPC tumors; test: Phosphatidylserine imaging in autochthonous KPC pancreatic tumors; assay type: in vivo, mouse; details: KPC mice
[9] = tested on: Panc-1 cells; test: Viability of Panc-1 cells under HDL receptor blockade; assay type: cell-based, human; details: HDL receptor inhibitor, LDS
Method: For direct enumeration of viable cells in co-cultures with CAFs, we seeded CAFs at 12,000 cells per well in 96-well plate (#3603, Corning) in DMEM/10% FBS. The next day, the media was replaced with 10%/LDS/DMEM and 4,000 DsRed-tagged Panc-1 cells were plated on the top of CAFs at 3:1 ratio. After 96 hours, fluorescence of viable DsRed-positive Panc-1 cells was measured using Spark Multimode Microplate Reader (Tecan) with parameters set at 540 nm for excitation and 590 nm for detection. To measure the dynamics of cell proliferation in vitro, we used xCELLigence E-Plate (ACEA BioSciences,) as per the manufacturer's recommended protocol. Impedance values were recorded every hour. Data was graphed using GraphPad Prism software.

Structure (SMILES): O=C(Nc1ccc([N+](=O)[O-])cc1Cl)c1cc(Cl)ccc1O [niclosamide]
- Transfer of DiD (CAF PM uptake) from CAFs to OT-1 CTLs [1]: notably suppressed the measured transfer
- Tumor weights of orthotopic syngeneic KPC3 pancreatic tumors [2]: significantly reduced tumor weights
- Signaling: expression of indicated protein epitopes in total cellular lysates of unmodified CAF1 fibroblasts [3]: suppresses signaling
- Formation of TMEM16F-dependent syncytia induced by SARS-COV-2 [4]: block formation
- PtdSer externalization (annexin XII) in CAFs co-cultured with Panc-1 cells [5]: absence of annexin XII labeling
- PtdSer externalization induced by ionomycin in CAFs pre-treated with inhibitor [6]: did not cause externalized PtdSer; also recorded: prevents PtdSer externalization
- Cholesterol accumulation in intratumoral vesicles containing BODIPY-cholesterol ([7]; 19 hours post injection): significantly lower accumulation
- BODIPY-cholesterol accumulation in DsRed-tagged PDAC KPC3 cells ([7]; niclosamide-treated mice, after intravenous labeled LDL, 10, 16 and 19 hours): suppressed BODIPY-cholesterol accumulation

Structure (SMILES): CC(C)/N=c1\cc2n(-c3ccc(Cl)cc3)c3ccccc3nc-2cc1Nc1ccc(Cl)cc1 [clofazimine]
- PtdSer externalization in cytokeratin-positive cancer cells and podoplanin-positive CAFs (KL5c betabody) ([8]; two daily doses 50 mg/kg, 50 μg KL5c IV 5 hours prior to sacrifice): blocks PtdSer externalization
- PtdSer externalization in KPC tumors (PSVue-794 infrared probe) ([8]; two daily doses 50 mg/kg, probe IV 24 hours prior to sacrifice): blocks PtdSer externalization
- Detection of externalized PtdSer in PDAC using two chemically unrelated probes ([8]; two daily doses of clofazimine 50 mg/kg, KL5c betabody and PSVue-794): completely suppressed detection of externalized PtdSer
- Transfer of DiD (CAF PM uptake) from CAFs to OT-1 CTLs [1]: notably suppressed the measured transfer
- Tumor weights of orthotopic syngeneic KPC3 pancreatic tumors [2]: significantly reduced tumor weights
- Formation of TMEM16F-dependent syncytia induced by SARS-COV-2 [4]: block formation
- PtdSer externalization (annexin XII) in CAFs co-cultured with Panc-1 cells [5]: suppressed PtdSer externalization; also recorded: blocked

Structure (SMILES): CCCCCCC1CCCC1=NNC(N)=S (stereo not shown) [BTL1]
- Panc-1 viability [9]: loss of Panc-1 viability
